Laboratory results taken from patent publication US20150105252A1, “SUBSTITUTED PYRAZOLES AS HERBICIDES” (E I DU PONT DE NEMOURS AND COMPANY, priority 2013, published 2015).

Key:
[1] = test system: velvetleaf; assay: Test C preemergence; assay type: in vivo, Abutilon theophrasti; settings: for Plant response rating (scale of 0 to 100), Velvetleaf: Preemergence; for Velvetleaf plant response rating / Plant response rating, Velvetleaf: preemergence; for Plant response rating, Velvetleaf: 125 g ai/ha, scale 0 to 100, 0 = no effect, 100 = complete control
Method in brief: (§1)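 Postemergence values come from plants sprayed at the 1- to 4-leaf stage (2–18 cm) in peat moss–vermiculite medium; preemergence values from seeds treated in a loam–sand blend. Both evaluated visually against controls after 13–15 greenhouse days, scale 0–100.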

[2] = test system: kochia; assay: Test C postemergence; assay type: in vivo, Kochia scoparia; settings: for Plant response rating (scale of 0 to 100 where 0 is no effect and 100 is complete control), Kochia: Postemergence, 31 g ai/ha, visually evaluated after 13 to 15 days; for Kochia plant response rating / Plant response rating, Kochia: postemergence; for Kochia plant response rating: 62 g ai/ha, scale 0 to 100
Method in brief: as §1

[3] = test system: foxtail, giant; assay: Test C preemergence; assay type: in vivo, Setaria faberii; settings: for Plant response rating (scale of 0 to 100), Foxtail, Giant: Preemergence; for Foxtail, Giant plant response rating / Plant response rating, Foxtail, Giant: preemergence; for Plant response rating, Foxtail, Giant: 125 g ai/ha, scale 0 to 100, 0 = no effect, 100 = complete control
Method in brief: as §1

[4] = test system: waterhemp; assay: Test C preemergence; assay type: in vivo, Amaranthus rudis; settings: for Plant response rating (scale of 0 to 100), Waterhemp: Preemergence; for Waterhemp plant response rating / Plant response rating, Waterhemp: preemergence; for Plant response rating, Waterhemp: 125 g ai/ha, scale 0 to 100, 0 = no effect, 100 = complete control
Method in brief: as §1

[5] = test system: johnsongrass; assay: Test C preemergence; assay type: in vivo, Sorghum halepense; settings: for Plant response rating (scale of 0 to 100), Johnsongrass: Preemergence; for Johnsongrass plant response rating / Plant response rating, Johnsongrass: preemergence; for Plant response rating, Johnsongrass: 125 g ai/ha, scale 0 to 100, 0 = no effect, 100 = complete control
Method in brief: as §1

[6] = test system: ryegrass, Italian; assay: Test C preemergence; assay type: in vivo, Lolium multiflorum; settings: for Plant response rating (scale of 0 to 100), Ryegrass, Italian: Preemergence; for Ryegrass, Italian plant response rating / Plant response rating, Ryegrass, Italian: preemergence; for Plant response rating, Ryegrass, Italian: 125 g ai/ha, scale 0 to 100, 0 = no effect, 100 = complete control
Method in brief: as §1

[7] = test system: chickweed; assay: Test C postemergence; assay type: in vivo, Stellaria media; settings: for Plant response rating (scale of 0 to 100 where 0 is no effect and 100 is complete control), Chickweed: Postemergence, 31 g ai/ha, visually evaluated after 13 to 15 days; for Chickweed plant response rating / Plant response rating, Chickweed: postemergence; for Chickweed plant response rating: 62 g ai/ha, scale 0 to 100
Method in brief: as §1

[8] = test system: barnyardgrass; assay: Test A postemergence; assay type: in vivo, Echinochloa crus-galli
Method in brief: (§2)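 Pre- and postemergence greenhouse test; loam+sand; cpd in non-phytotox. solvent/surfactant; post at 1–2 leaf, 2–10 cm; visual score ~10 d, 0 = none, 100 = complete control.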

[9] = test system: pigweed; assay: Test A postemergence; assay type: in vivo, Amaranthus retroflexus
Method in brief: as §2

[10] = test system: crabgrass, large; assay: Test C preemergence; assay type: in vivo, Digitaria sanguinalis; settings: for Plant response rating (scale of 0 to 100), Crabgrass, Large: Preemergence; for Crabgrass, Large plant response rating / Plant response rating, Crabgrass, Large: preemergence; for Plant response rating, Crabgrass, Large: 125 g ai/ha, scale 0 to 100, 0 = no effect, 100 = complete control
Method in brief: as §1

[11] = test system: crabgrass, large; assay: Test C postemergence; assay type: in vivo, Digitaria sanguinalis; settings: for Plant response rating (scale of 0 to 100 where 0 is no effect and 100 is complete control), Crabgrass, Large: Postemergence, 31 g ai/ha, visually evaluated after 13 to 15 days; for Crabgrass, Large plant response rating / Plant response rating, Crabgrass, Large: postemergence; for Crabgrass, Large plant response rating: 62 g ai/ha, scale 0 to 100
Method in brief: as §1

[12] = test system: barnyardgrass; assay: Test C postemergence; assay type: in vivo, Echinochloa crus-galli; settings: for Plant response rating (scale of 0 to 100 where 0 is no effect and 100 is complete control), Barnyardgrass: Postemergence, 31 g ai/ha, visually evaluated after 13 to 15 days; for Barnyardgrass plant response rating / Plant response rating, Barnyardgrass: postemergence; for Barnyardgrass plant response rating: 62 g ai/ha, scale 0 to 100
Method in brief: as §1

[13] = 31 g ai/ha, visual rating, scale 0 to 100 (0 no effect, 100 complete control), 13 to 15 days
[14] = 62 g ai/ha, scale 0 to 100 (0 no effect, 100 complete control), 13 to 15 days
[15] = 250 g ai/ha, scale 0 to 100 (0 no effect, 100 complete control)
[16] = 125 g ai/ha, scale 0 to 100, 0 no effect, 100 complete control
[17] = Postemergence, 500 g ai/ha, 0 to 100 scale (0 no effect, 100 complete control)
[18] = postemergence, 125 g ai/ha, about 10 days, visual rating on 0 to 100 scale (0 no effect, 100 complete control)
[19] = 250 g ai/ha, scale 0 to 100, 0 is no effect, 100 is complete control

CCOc1cc(C(=O)NCC(F)(F)F)nn1Cc1ccnc(OC(F)F)c1 [Compound 128]
Plant response rating (scale of 0 to 100), Velvetleaf ([1]; 250 g ai/ha): 100
Velvetleaf plant response rating [1, 13]: 5
Velvetleaf plant response rating [1, 14]: 100
Plant response rating, Velvetleaf ([1]; 13 to 15 days): 100
Plant response rating (scale of 0 to 100 where 0 is no effect and 100 is complete control), Kochia [2]: 60
Kochia plant response rating [2]: 65
Plant response rating, Kochia [2, 15]: 90
Plant response rating, Kochia [2, 16]: 65
Plant response rating (scale of 0 to 100), Foxtail, Giant ([3]; 250 g ai/ha): 100
Foxtail, Giant plant response rating [3, 13]: 98
Foxtail, Giant plant response rating [3, 14]: 100
Plant response rating, Foxtail, Giant ([3]; 13 to 15 days): 100
Plant response rating (scale of 0 to 100), Waterhemp ([4]; 250 g ai/ha): 100
Waterhemp plant response rating [4, 13]: 100
Waterhemp plant response rating [4, 14]: 100
Plant response rating, Waterhemp ([4]; 13 to 15 days): 100
Plant response rating (scale of 0 to 100), Johnsongrass ([5]; 250 g ai/ha): 98
Johnsongrass plant response rating [5, 13]: 45
Johnsongrass plant response rating [5, 14]: 85
Plant response rating, Johnsongrass ([5]; 13 to 15 days): 95
Plant response rating (scale of 0 to 100), Ryegrass, Italian ([6]; 250 g ai/ha): 95
Ryegrass, Italian plant response rating [6, 13]: 5
Ryegrass, Italian plant response rating [6, 14]: 70
Plant response rating, Ryegrass, Italian ([6]; 13 to 15 days): 90
Plant response rating (scale of 0 to 100 where 0 is no effect and 100 is complete control), Chickweed [7]: 70
Chickweed plant response rating [7]: 75
Plant response rating, Chickweed [7, 15]: 95
Plant response rating, Chickweed [7, 16]: 85
Barnyardgrass plant response rating [8, 17]: 100
Barnyardgrass plant response rating [8, 18]: 100
Pigweed plant response rating [9, 17]: 100
Pigweed plant response rating [9, 18]: 100
Plant response rating (scale of 0 to 100), Crabgrass, Large ([10]; 250 g ai/ha): 100
Crabgrass, Large plant response rating [10, 13]: 100
Crabgrass, Large plant response rating [10, 14]: 95
Plant response rating, Crabgrass, Large ([10]; 13 to 15 days): 100
Plant response rating (scale of 0 to 100 where 0 is no effect and 100 is complete control), Crabgrass, Large [11]: 5
Crabgrass, Large plant response rating [11]: 5
Plant response rating, Crabgrass, Large [11, 15]: 85
Plant response rating, Crabgrass, Large [11, 16]: 30
Plant response rating (scale of 0 to 100 where 0 is no effect and 100 is complete control), Barnyardgrass [12]: 5
Barnyardgrass plant response rating [12]: 5
Plant response rating, Barnyardgrass [12, 15]: 60
Plant response rating, Barnyardgrass [12, 16]: 15

CCCNC(=O)c1cc(OCC)n(Cc2ccnc(OC(F)F)c2)n1 [Compound 136]
Velvetleaf plant response rating [1, 13]: 65
Velvetleaf plant response rating [1, 14]: 100
Plant response rating, Velvetleaf ([1]; 13 to 15 days): 100
Velvetleaf plant response rating [1, 19]: 100
Plant response rating (scale of 0 to 100 where 0 is no effect and 100 is complete control), Kochia [2]: 90
Kochia plant response rating [2]: 90
Plant response rating, Kochia [2, 15]: 90
Plant response rating, Kochia [2, 16]: 90
Foxtail, Giant plant response rating [3, 13]: 100
Foxtail, Giant plant response rating [3, 14]: 100
Plant response rating, Foxtail, Giant ([3]; 13 to 15 days): 100
Foxtail, Giant plant response rating [3, 19]: 100
Waterhemp plant response rating [4, 13]: 85
Waterhemp plant response rating [4, 14]: 100
Plant response rating, Waterhemp ([4]; 13 to 15 days): 100
Waterhemp plant response rating [4, 19]: 100
Johnsongrass plant response rating [5, 13]: 60
Johnsongrass plant response rating [5, 14]: 85
Plant response rating, Johnsongrass ([5]; 13 to 15 days): 98
Johnsongrass plant response rating [5, 19]: 100
Ryegrass, Italian plant response rating [6, 13]: 55
Ryegrass, Italian plant response rating [6, 14]: 90
Plant response rating, Ryegrass, Italian ([6]; 13 to 15 days): 95
Ryegrass, Italian plant response rating [6, 19]: 95
Plant response rating (scale of 0 to 100 where 0 is no effect and 100 is complete control), Chickweed [7]: 100
Chickweed plant response rating [7]: 100
Plant response rating, Chickweed [7, 15]: 100
Plant response rating, Chickweed [7, 16]: 100
Barnyardgrass plant response rating [8, 17]: 90
Barnyardgrass plant response rating [8, 18]: 70
Pigweed plant response rating [9, 17]: 100
Pigweed plant response rating [9, 18]: 80
Crabgrass, Large plant response rating [10, 13]: 100
Crabgrass, Large plant response rating [10, 14]: 100
Plant response rating, Crabgrass, Large ([10]; 13 to 15 days): 100
Crabgrass, Large plant response rating [10, 19]: 100
Plant response rating (scale of 0 to 100 where 0 is no effect and 100 is complete control), Crabgrass, Large [11]: 5
Crabgrass, Large plant response rating [11]: 5
Plant response rating, Crabgrass, Large [11, 15]: 40
Plant response rating, Crabgrass, Large [11, 16]: 40
Plant response rating (scale of 0 to 100 where 0 is no effect and 100 is complete control), Barnyardgrass [12]: 5
Barnyardgrass plant response rating [12]: 5
Plant response rating, Barnyardgrass [12, 15]: 45
Plant response rating, Barnyardgrass [12, 16]: 5

CCCc1cc(C(=O)NCC(F)(F)F)nn1Cc1ccnc(OC(F)F)c1 [Compound 127]
Plant response rating (scale of 0 to 100), Velvetleaf ([1]; 250 g ai/ha): 100
Velvetleaf plant response rating [1, 13]: 60
Velvetleaf plant response rating [1, 14]: 60
Plant response rating, Velvetleaf ([1]; 13 to 15 days): 100
Plant response rating (scale of 0 to 100 where 0 is no effect and 100 is complete control), Kochia [2]: 60
Kochia plant response rating [2]: 65
Plant response rating, Kochia [2, 15]: 90
Plant response rating, Kochia [2, 16]: 65
Plant response rating (scale of 0 to 100), Foxtail, Giant ([3]; 250 g ai/ha): 98
Foxtail, Giant plant response rating [3, 13]: 98
Foxtail, Giant plant response rating [3, 14]: 100
Plant response rating, Foxtail, Giant ([3]; 13 to 15 days): 100
Plant response rating (scale of 0 to 100), Waterhemp ([4]; 250 g ai/ha): 100
Waterhemp plant response rating [4, 13]: 100
Waterhemp plant response rating [4, 14]: 100
Plant response rating, Waterhemp ([4]; 13 to 15 days): 100
Plant response rating (scale of 0 to 100), Johnsongrass ([5]; 250 g ai/ha): 90
Johnsongrass plant response rating [5, 13]: 55
Johnsongrass plant response rating [5, 14]: 55
Plant response rating, Johnsongrass ([5]; 13 to 15 days): 80
Plant response rating (scale of 0 to 100), Ryegrass, Italian ([6]; 250 g ai/ha): 80
Ryegrass, Italian plant response rating [6, 13]: 25
Ryegrass, Italian plant response rating [6, 14]: 60
Plant response rating, Ryegrass, Italian ([6]; 13 to 15 days): 80
Plant response rating (scale of 0 to 100 where 0 is no effect and 100 is complete control), Chickweed [7]: 75
Chickweed plant response rating [7]: 80
Plant response rating, Chickweed [7, 15]: 80
Plant response rating, Chickweed [7, 16]: 80
Barnyardgrass plant response rating [8, 17]: 90
Barnyardgrass plant response rating [8, 18]: 90
Pigweed plant response rating [9, 17]: 90
Pigweed plant response rating [9, 18]: 90
Plant response rating (scale of 0 to 100), Crabgrass, Large ([10]; 250 g ai/ha): 100
Crabgrass, Large plant response rating [10, 13]: 80
Crabgrass, Large plant response rating [10, 14]: 100
Plant response rating, Crabgrass, Large ([10]; 13 to 15 days): 100
Plant response rating (scale of 0 to 100 where 0 is no effect and 100 is complete control), Crabgrass, Large [11]: 10
Crabgrass, Large plant response rating [11]: 10
Plant response rating, Crabgrass, Large [11, 15]: 55
Plant response rating, Crabgrass, Large [11, 16]: 20
Plant response rating (scale of 0 to 100 where 0 is no effect and 100 is complete control), Barnyardgrass [12]: 5
Barnyardgrass plant response rating [12]: 5
Plant response rating, Barnyardgrass [12, 15]: 15
Plant response rating, Barnyardgrass [12, 16]: 10
